Laboratory results as given in ChEMBL document CHEMBL3044597, “Docking-based 3D-QSAR modeling of the inhibitors of IMP metallo--lactamase” (Med Chem Res, 2013).

molecular target: Beta-lactamase (Pseudomonas aeruginosa, UniProt Q79MP6); test: Inhibition of Pseudomonas aeruginosa IMP1 metallo-beta-lactamase
Sequence (Q79MP6 whole entry): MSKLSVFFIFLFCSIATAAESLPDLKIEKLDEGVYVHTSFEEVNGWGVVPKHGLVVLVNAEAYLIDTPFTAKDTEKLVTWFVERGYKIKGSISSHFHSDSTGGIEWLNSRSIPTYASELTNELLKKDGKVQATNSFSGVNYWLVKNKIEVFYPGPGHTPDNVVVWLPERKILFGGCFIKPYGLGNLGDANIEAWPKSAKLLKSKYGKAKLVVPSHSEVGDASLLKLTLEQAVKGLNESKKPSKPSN

| Structure (SMILES) | IC50 [µM] |
| --- | --- |
| C[C@@H](Cc1ccc(-c2ccccc2)cc1)SC(=O)[C@@H](C)NC(=O)CCc1ccccc1 | 15 |
| COc1cc(OC)c(C(=O)N[C@H](C)C(=O)S[C@@H](C)Cc2ccc(-c3ccccc3)cc2)c(OC)c1 | 46 |
| C[C@@H](Cc1ccc(-c2ccccc2)cc1)SC(=O)[C@@H](C)NC(=O)Cc1cccc2ccccc12 | 12 |
| C[C@@H](Cc1ccc(-c2ccccc2)cc1)SC(=O)[C@@H](C)NC(=O)CSCC(=O)O | 13 |
| CC(=O)N[C@H](C)C(=O)S[C@@H](C)Cc1ccc(-c2ccccc2)cc1 | 18 |
| C[C@@H](Cc1ccc(-c2ccccc2)cc1)SC(=O)[C@@H](C)NC(=O)CCCC(=O)O | 91 |
| COc1cccc(C(=O)N[C@H](C)C(=O)S[C@@H](C)Cc2ccc(-c3ccccc3)cc2)c1 | 38 |
| C[C@@H](Cc1ccc(-c2ccccc2)cc1)SC(=O)[C@@H](C)NC(=O)Cc1cccnc1 | 32 |
| C[C@@H](Cc1ccccc1)SC(=O)[C@@H](C)NC(=O)c1ccccc1 | 20 |
| CCCCCC(=O)N[C@H](C)C(=O)S[C@@H](C)Cc1ccc(-c2ccccc2)cc1 | 13 |
| COc1ccc(CC(=O)N[C@H](C)C(=O)S[C@@H](C)Cc2ccc(-c3ccccc3)cc2)cc1 | 12 |
| C[C@@H](Cc1ccc(-c2ccccc2)cc1)SC(=O)[C@@H](C)NC(=O)Cc1ccccc1Cc1ccccc1 | 24 |
| C[C@@H](Cc1ccc(-c2ccccc2)cc1)SC(=O)[C@@H](C)NC(=O)Cc1ccc(N(C)C)cc1 | 55 |
| COc1ccc(C(=O)N[C@H](C)C(=O)S[C@@H](C)Cc2ccc(-c3ccccc3)cc2)cc1 | 29 |
| C[C@@H](Cc1ccc(-c2ccccc2)cc1)SC(=O)[C@@H](C)NC(=O)c1cccc(N(C)C)c1 | 15 |
| C[C@@H](Cc1ccc(-c2ccccc2)cc1)SC(=O)[C@@H](C)NC(=O)CNC(=O)c1ccccc1 | 50 |
| C/C=C/C(=O)N[C@H](C)C(=O)S[C@@H](C)Cc1ccc(-c2ccccc2)cc1 | 33 |
| C[C@@H](Cc1ccc(-c2ccccc2)cc1)SC(=O)[C@@H](C)NC(=O)c1ccc2ccccc2c1 | 18 |
| CC(=O)S[C@H](Cc1ccccc1)C(=O)O | 12 |

Now those with a lower IC50, led by results:

| IC50 [µM] | Structure (SMILES) |
| --- | --- |
| 4.8 | CCCCC(=O)N[C@H](C)C(=O)S[C@@H](C)Cc1ccc(-c2ccccc2)cc1 |
| 0.21 | O=C(O)[C@H](Cc1ccccc1)[C@@H](Cc1ccccc1)C(=O)O [(2R,3R)-2,3-DIBENZYLSUCCINIC ACID] |
| 0.0859 | O=C(O)[C@H](S)Cc1ccccc1 |
| 0.00899 | O=C(O)[C@@H](Cc1ccc2c(c1)OCO2)[C@H](Cc1ccc2c(c1)OCO2)C(=O)O |
| 1.5 | C[C@@H](Cc1ccc2oc3ccccc3c2c1)SC(=O)[C@@H](C)NC(=O)c1ccccc1 |
| 2.5 | O=C(S[C@@H](Cc1ccccc1)C(=O)O)c1ccccc1 |
| 4.4 | C=CCOC(=O)N[C@H](C)C(=O)S[C@@H](C)Cc1ccc(-c2ccccc2)cc1 |
| 11 | C[C@@H](Cc1ccc(-c2ccccc2)cc1)SC(=O)[C@@H](C)NC(=O)/C=C/c1ccccc1 |
| 0.0027 | O=C(O)[C@@H](Cc1ccccc1)[C@H](Cc1ccccc1)C(=O)O |
| 0.25 | O=C(O)[C@@H](S)Cc1ccc2oc3ccccc3c2c1 |
| 9.51 | CCC(=O)N[C@H](C)C(=O)S[C@@H](C)Cc1ccc(-c2ccccc2)cc1 |
| 1 | C[C@@H](Cc1ccc(-c2ccccc2)cc1)SC(=O)[C@@H](C)NC(=O)COc1ccccc1 |
| 0.0839 | CC(=O)S[C@H](Cc1ccc(-c2ccccc2)cc1)C(=O)O |
| 5.79 | C[C@@H](Cc1ccc(-c2ccccc2)cc1)SC(=O)[C@@H](C)NC(=O)Cc1ccccc1 |
| 9.71 | CC(C)C(=O)N[C@H](C)C(=O)S[C@@H](C)Cc1ccc(-c2ccccc2)cc1 |
| 3.1 | C[C@@H](Cc1ccc(-c2ccccc2)cc1)SC(=O)[C@@H](C)NC(=O)Cc1ccc(O)cc1 |
| 1.2 | O=C(O)[C@@H](S)Cc1ccc(-c2ccccc2)cc1 |
| 2 | CC(=O)N[C@H](C)C(=O)S[C@@H](C)Cc1ccc2oc3ccccc3c2c1 |
| 2.9 | C=CCOC(=O)N[C@H](C)C(=O)S[C@@H](C)Cc1ccc2oc3ccccc3c2c1 |
| 0.064 | O=C(S[C@H](Cc1ccccc1)C(=O)O)c1ccccc1 |
| 5.3 | CC(C)CC(=O)N[C@H](C)C(=O)S[C@@H](C)Cc1ccc(-c2ccccc2)cc1 |
| 0.023 | O=C(O)[C@H](S)Cc1ccc2oc3ccccc3c2c1 |
| 0.057 | O=C(O)[C@H](S)Cc1ccc(-c2ccccc2)cc1 |
| 9.29 | CCCC(=O)N[C@H](C)C(=O)S[C@@H](C)Cc1ccc(-c2ccccc2)cc1 |
| 3.6 | C[C@@H](Cc1ccc(-c2ccccc2)cc1)SC(=O)[C@@H](C)NC(=O)c1ccccc1 |
| 0.0013 | O=C(S[C@H](Cc1ccc2oc3ccccc3c2c1)C(=O)O)c1ccccc1 |
| 0.013 | C[C@@H](c1ccccc1)[C@H](C(=O)O)[C@H](Cc1ccccc1)C(=O)O |
| 0.0037 | O=C(O)[C@@H](Cc1ccccc1)[C@H](Cc1ccc2c(c1)OCO2)C(=O)O |
| 0.25 | C[C@@H](Cc1ccc(-c2ccccc2)cc1)SC(=O)[C@@H](C)NC(=O)CCC(=O)c1ccccc1 |
